Test results from paper PMC2582943 (Antiviral Research, 2008).
Where “and” joins values, the source holds several entries; their conditions need not be identical. Identical values can stand only once. Entries after “also recorded” stand apart in the source; their conditions may differ. Counter-ions that a name gives are not always drawn. Like-named read-outs stand apart in the source and are kept apart here. Peptide text beside a SMILES is read from it.

How the values were obtained:
[1] = test system: Vero 76 cells; assay: cells; type: cell-based, African green monkey
[2] = test system: SARS-CoV (strain Urbani); assay: microbe, parasite or virus in culture; type: cell-based
[3] = test system: SARS-CoV Frankfurt-1 strain; assay: microbe, parasite or virus in culture; type: cell-based
[4] = test system: SARS-CoV Toronto-2 strain; assay: microbe, parasite or virus in culture; type: cell-based
[5] = test system: SARS-CoV CHUK-W1 strain; assay: microbe, parasite or virus in culture; type: cell-based
[6] = test system: SARS-CoV (strain Urbani); assay: microbe, parasite or virus in culture; type: cell-based; remark: listed apart in the source
[7] = test system: SARS-CoV Toronto-2 strain; assay: microbe, parasite or virus in culture; type: cell-based; remark: listed apart in the source
[8] = test system: SARS-CoV CHUK-W1 strain; assay: microbe, parasite or virus in culture; type: cell-based; remark: listed apart in the source
[9] = test system: SARS-CoV Frankfurt-1 strain; assay: microbe, parasite or virus in culture; type: cell-based; remark: listed apart in the source
[10] = test system: BALB/c mice; conditions: mouse, in vivo, ip
[11] = test system: SARS-CoV (Urbani); design: species or system BALB/c mice; conditions: mouse, in vivo
[12] = test system: mice; conditions: mouse, in vivo, ip; cited from earlier work
[13] = test system: SARS-CoV
[14] = test system: lungs; conditions: mouse, in vivo
[15] = Chlorocebus sabaeus, Vero 76, read-out: Neutral red uptake assay IC50 ± S.D.
[16] = Chlorocebus sabaeus, Vero 76, read-out: Virus yield reduction assay IC50
[17] = read-out: Neutral red uptake assay IC50 ± S.D.
[18] = Severe acute respiratory syndrome coronavirus, Vero 76, read-out: Neutral red uptake assay EC50
[19] = Severe acute respiratory syndrome coronavirus, Vero 76, read-out: Neutral red uptake assay EC50 ± S.D.
[20] = Severe acute respiratory syndrome coronavirus, Vero 76, read-out: VYR assay EC90 ± S.D.
[21] = Severe acute respiratory syndrome coronavirus, Vero 76, read-out: Virus yield reduction assay EC90
[22] = Chlorocebus sabaeus, Vero 76, read-out: Neutral red uptake assay IC50
[23] = read-out: Neutral red uptake assay IC50
[24] = read-out: Virus yield reduction assay IC50
[25] = read-out: Neutral red uptake assay EC50
[26] = read-out: Virus yield reduction assay EC90
[27] = read-out: Neutral red uptake assay EC50 ± S.D.
[28] = read-out: VYR assay EC90 ± S.D.

## CC(=O)c1ccc2c(c1)N(CCCN1CCN(CCO)CC1)c1ccccc1S2 [Acetophenazine maleate]
[1]; [15]
  IC50: 14.3 ± 6.4 µM
[1]; [16]
  IC50: 13.2 ± 1.6 µM
[1]; [17]
  IC50: 18 µM and 15.5 µM and 13.7 µM
[2]; [18]
  EC50: 6.6 ± 3.3 µM
[2]; [19]
  EC50: 8.1 ± 1.4 µM
[3]; [20]
  EC90: 10 ± 5.2 µM
[4]; [19]
  EC50: 11.5 ± 3.7 µM
[5]; [20]
  EC90: 11.2 ± 3.2 µM
[6]; [20]
  EC90: 12.3 ± 2.1 µM
[6]; [21]
  EC90: 10 ± 5 µM
[7]; [20]
  EC90: 13 µM
[8]; [19]
  EC50: 9.6 ± 7.6 µM

## CCN(CC)C(C)CN1c2ccccc2Sc2ccccc21 (stereo not shown) [Ethopropazine]
[1]; [22]
  IC50: 61.3 ± 34.7 µM
[1]; [16]
  IC50: 61.3 ± 34.7 µM
[2]
  Neutral red uptake assay SI: 2.0
[2]; [18]
  EC50: 30.5 ± 27.5 µM
[6]
  Virus yield reduction assay SI: 1.5
[6]; [21]
  EC90: 42 µM

## CN(C)CCCN1c2ccccc2Sc2ccc(C(F)(F)F)cc21.Cl [Trifluopromazine·HCl]
[1]; [23]
  IC50: 18 ± 5.6 µM
[1]; [24]
  IC50: 18 ± 5.6 µM
[2]
  Neutral red uptake assay SI: 1.4
[2]; [25]
  EC50: 13.3 ± 5.8 µM
[6]
  Virus yield reduction assay SI: 1.4
[6]; [26]
  EC90: 12.8 ± 1.9 µM

## CN(C)CC/C=C1/c2ccccc2Sc2ccc(Cl)cc21 [Chlorprothixene]
[9]
  Neutral red uptake assay SI: 1.2
[9]; [19]
  EC50: 11.1 ± 3.4 µM
[1]; [15]
  IC50: 13 ± 2 µM
[1]; [16]
  IC50: 18.3 ± 3.4 µM
[1]; [17]
  IC50: 18.5 µM and 15.8 µM and 16.7 µM
[2]
  Neutral red uptake assay SI: 1.9 and 1.4
[2]; [18]
  EC50: 9.5 ± 5.7 µM
[2]; [19]
  EC50: 12 ± 3.5 µM
[3]; [20]
  EC90: 12.3 ± 0.6 µM
[4]
  Neutral red uptake assay SI: 1.2
[4]; [19]
  EC50: 12.9 ± 3.6 µM
[5]; [20]
  EC90: 12.1 ± 4.2 µM
[6]
  Virus yield reduction assay SI: 1.8
[6]; [20]
  EC90: 10.5 ± 5.2 µM
[6]; [21]
  EC90: 10.4 ± 4.2 µM
[7]; [20]
  EC90: 13 ± 1 µM
[8]
  Neutral red uptake assay SI: 1.5
[8]; [19]
  EC50: 12.6 ± 6.5 µM

## OCCN1CCN(CCCN2c3ccccc3Sc3ccc(Cl)cc32)CC1 [Perphenazine]
[1]; [16]
  IC50: 15.8 ± 3.4 µM
[2]
  Neutral red uptake assay SI: 1.6
[2]; [25]
  EC50: 9.7 ± 1.2 µM
[6]
  Virus yield reduction assay SI: 1.9

## CN(C)CCCN1c2ccccc2Sc2ccccc21 [Promazine, 10-(3-(dimethylamino)propyl)phenothiazine]
[9]
  Neutral red uptake assay SI: 1.6
[9]; [19]
  EC50: 21 ± 15.4 µM
[1]; [22]
  IC50: 13.5 ± 6.2 µM
[1]; [16]
  IC50: 18.2 ± 14.6 µM
[10]; BALB/c
  Lethality: lethal to all mice by day 3
[10]
  Lethality: somewhat lethal
[2]
  Neutral red uptake assay SI: 1.2 and <1
[2]; [18]
  EC50: 10.8 ± 8.1 µM
[2]; [19]
  EC50: 14 ± 6.1 µM
[3]; [20]
  EC90: 11.6 ± 6.3 µM
[4]
  Neutral red uptake assay SI: 1.5
[4]; [19]
  EC50: 22.6 ± 12.8 µM
[11]
  Duration of virus replication in the lungs (in words): prolonged virus replication to 14 days; also recorded: significantly prolonged
  Virus titer ± S.D., Day 3: 5.6 ± 1.0 Log10 CCID50/g and 5.6 ± 0.4 Log10 CCID50/g and 5.7 ± 0.3 Log10 CCID50/g and 5.6 ± 0.0 Log10 CCID50/g and 5.8 ± 0.4 Log10 CCID50/g and 6.0 ± 0.6 Log10 CCID50/g
  Virus titer ± S.D., Day 14: 3.4 ± 0.1 Log10 CCID50/g and 3.4 ± 0.0 Log10 CCID50/g
[11]; ip
  Inhibition of virus replication in the lungs, therapeutic treatment (in words): not efficacious
  Reduction of viral replication in the lungs at day 3 (in words): did not reduce virus lung titers; also recorded: no significant reduction
  Virus titer ± S.D., Day 3: 5.6 ± 0.0 Log10 CCID50/g and 6.0 ± 0.6 Log10 CCID50/g and 5.4 ± 0.1 Log10 CCID50/g
  Virus titer ± S.D., Day 7: <0.75 Log10 CCID50/g
[12]
  LD50: 140 mg/(kg day)
[5]; [20]
  EC90: 16.5 ± 11.1 µM
[6]
  Virus yield reduction assay SI: 2.1
[6]; [20]
  EC90: 7.8 ± 3.1 µM
[6]; [21]
  EC90: 8.3 ± 2.8 µM
[13]
  Virucidal activity (virus titer reduction after exposure): did not result in virus titer reduction
[14]
  Histopathological examination of lungs: no signs of pathology
[7]; [20]
  EC90: 20.7 ± 9.5 µM
[8]
  Neutral red uptake assay SI: 2.2
[8]; [19]
  EC50: 15.6 ± 8.5 µM

## c1ccc2c(c1)Nc1ccccc1O2 [Phenoxazine]
[1]; [22]
  IC50: 74.5 ± 20.2 µM
[2]
  Inhibition of virus replication in vitro (in words): essentially inactive
  Neutral red uptake assay SI: <1

## COc1ccc2c(c1)N(C[C@H](C)CN(C)C)c1ccccc1S2 [Methotrimeprazine]
[1]; [22]
  IC50: 26 ± 10.8 µM
[1]; [16]
  IC50: 21 ± 5.4 µM
[2]
  Neutral red uptake assay SI: 1.4
[2]; [18]
  EC50: 19 ± 8.1 µM
[6]
  Virus yield reduction assay SI: 1.7
[6]; [21]
  EC90: 12.3 ± 1.7 µM

## CN1CCN(CCCN2c3ccccc3Sc3ccc(C(F)(F)F)cc32)CC1 [Trifluoperazine dimaleate]
[1]; [22]
  IC50: 9.5 ± 3.1 µM
[1]; [16]
  IC50: 8 ± 2.1 µM
[2]
  Neutral red uptake assay SI: 1.3
[2]; [18]
  EC50: 7.3 ± 4.7 µM
[6]
  Virus yield reduction assay SI: <1
[6]; [26]
  EC90: 10.2 ± 4.4 µM

## c1ccc2c(c1)Oc1ccccc1S2 [Phenoxathiin]
[1]; [22]
  IC50: 858 ± 208 µM
[1]; [16]
  IC50: 968 ± 65 µM
[2]
  Neutral red uptake assay SI: 1.1
[2]; [18]
  EC50: 763 ± 475 µM
[6]
  Virus yield reduction assay SI: 1.3
[6]; [21]
  EC90: 752 ± 497 µM

## CCOS(=O)(=O)[O-].CC[n+]1c2ccccc2nc2ccccc21 [Phenazine ethosulfate]
[1]; [23]
  IC50: 6.6 ± 4.7 µM
[1]; [24]
  IC50: 6.6 ± 4.7 µM
[2]
  Neutral red uptake assay SI: 1.3
[2]; [25]
  EC50: 5.2 ± 2.9 µM
[6]
  Virus yield reduction assay SI: 1.1
[6]; [26]
  EC90: 6.1 ± 4.3 µM

## OCCCN1c2ccccc2Sc2ccc(Cl)cc21 [2-Chloro-10-(3-chloropropanol)-10H-phenothiazine]
[1]; [23]
  IC50: 20.8 ± 8.1 µM
[1]; [24]
  IC50: 20.8 ± 8.1 µM
[2]
  Inhibition of virus replication in vitro (in words): essentially inactive
  Neutral red uptake assay SI: <1
[2]; [25]
  EC50: 23 ± 11 µM
[6]
  Virus yield reduction assay SI: <1
[6]; [26]
  EC90: 27 ± 16.8 µM

## CN1CCCC1CN1c2ccccc2Sc2ccccc21.Cl (stereo not shown) [10-(1-Methyl-2-pyrrolidinymethyl)-phenothiazine·HCl]
[9]; [27]
  EC50: 24.3 ± 7.4 µM
[1]; [23]
  IC50: 39.9 ± 0.2 µM
[1]; [17]
  IC50: 39.7 µM and 32.3 µM and 48 µM and 42.3 µM
[1]; [24]
  IC50: 39.9 ± 0.2 µM
[3]; [28]
  EC90: 23.7 ± 6 µM
[4]; [27]
  EC50: 28.5 ± 8.1 µM
[5]; [28]
  EC90: 31.3 ± 14.2 µM
[6]; [28]
  EC90: 28.3 ± 12.9 µM
[6]; [26]
  EC90: 16.9 ± 9.7 µM
[7]; [28]
  EC90: 41.7 ± 4 µM
[8]; [27]
  EC50: 19 ± 2.6 µM

## CCC(=O)c1ccc2c(c1)N(CCCN(C)C)c1ccccc1S2 [Propionylpromazine·HCl]
[1]; [16]
  IC50: 19.3 ± 2.2 µM
[2]
  Inhibition of virus replication in vitro (in words): essentially inactive
  Neutral red uptake assay SI: <1
[2]; [18]
  EC50: 24.3 ± 15.6 µM
[6]
  Virus yield reduction assay SI: 1.4

## CC(C)C[C@H](NC(=O)OCc1ccccc1)C(=O)N[C@@H](CC(C)C)C(=O)N[C@@H](Cc1ccc(O)cc1)C(=O)CF [Calpain Inhibitor IV] (HELM PEPTIDE1{[O=C(OCc1ccccc1)[*:2]].L.L.Y.[FC[*:1]]}$$$$V2.0)
[9]
  Neutral red uptake assay SI: 9.5
[9]; [27]
  EC50: 4.6 ± 2.1 µM
[1]; [23]
  IC50: 24.7 ± 7 µM
[1]; [17]
  IC50: 24.7 µM and 44 µM and 30 µM and 45 µM
[1]; [24]
  IC50: 33 ± 4.1 µM
[2]
  Inhibition of virus replication in vitro (in words): inhibited virus replication as expected
  Neutral red uptake assay SI: 9.4
[2]; [25]
  EC50: 2.6 µM
[2]; [27]
  EC50: 2.6 ± 0.5 µM
[3]; [28]
  EC90: 6.5 ± 3.6 µM
[4]
  Neutral red uptake assay SI: 8.3
[4]; [27]
  EC50: 5.4 ± 1.4 µM
[5]; [28]
  EC90: 6.5 ± 3.6 µM
[6]
  Virus yield reduction assay SI: 3.3
[6]; [28]
  EC90: 7.2 ± 0.9 µM
[6]; [26]
  EC90: 7.2 µM
[7]; [28]
  EC90: 9.6 ± 3.1 µM
[8]; [27]
  EC50: 2.6 ± 1.4 µM

## c1ccc2c(c1)Nc1ccccc1S2 [Phenothiazine]
[1]; [22]
  IC50: 56.5 ± 61.5 µM
[2]
  Neutral red uptake assay SI: 2.6
